Paper PMC3531872 (Chemical research in toxicology, 2011)
Read-outs that look alike come from different tables or passages of the source.

What was measured:
[1] = test system: liver DNA; conditions: male C57BL/6 mice; 24 h post-treatment; 5 mg/kg; cited from earlier work
[2] = target: T1, Recombinant human P450 1B1 (Homo sapiens, UniProt Q16678); test: N- and C-oxidation by recombinant human P450 1B1; assay type: in vitro ADME
T1 sequence (Q16678 1-543): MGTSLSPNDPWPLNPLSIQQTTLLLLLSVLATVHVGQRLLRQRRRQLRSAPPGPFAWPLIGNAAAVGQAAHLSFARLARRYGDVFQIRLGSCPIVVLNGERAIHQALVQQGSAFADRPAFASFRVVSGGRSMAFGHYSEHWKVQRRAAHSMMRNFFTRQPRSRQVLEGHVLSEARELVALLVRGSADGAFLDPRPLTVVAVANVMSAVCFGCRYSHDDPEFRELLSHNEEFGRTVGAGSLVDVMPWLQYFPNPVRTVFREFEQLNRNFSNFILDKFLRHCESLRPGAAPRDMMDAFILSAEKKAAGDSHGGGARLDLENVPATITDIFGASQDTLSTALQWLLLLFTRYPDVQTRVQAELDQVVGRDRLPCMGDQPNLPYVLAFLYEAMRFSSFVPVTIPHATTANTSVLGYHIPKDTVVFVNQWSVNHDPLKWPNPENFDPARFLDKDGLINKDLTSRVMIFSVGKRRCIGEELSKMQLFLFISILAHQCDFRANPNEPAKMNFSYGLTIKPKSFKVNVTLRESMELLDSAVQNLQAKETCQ

[3] = test system: liver, pancreas and colorectal DNA; test: In vivo DNA binding
[4] = Plasma clearance of 14C radioactivity in mice; assay type: in vivo, female C57BL/6J mice
[5] = target: T2, Recombinant human P450 1A1 (Homo sapiens, UniProt P04798); test: N- and C-oxidation by recombinant human P450 1A1; assay type: in vitro ADME
T2 sequence (P04798 1-512): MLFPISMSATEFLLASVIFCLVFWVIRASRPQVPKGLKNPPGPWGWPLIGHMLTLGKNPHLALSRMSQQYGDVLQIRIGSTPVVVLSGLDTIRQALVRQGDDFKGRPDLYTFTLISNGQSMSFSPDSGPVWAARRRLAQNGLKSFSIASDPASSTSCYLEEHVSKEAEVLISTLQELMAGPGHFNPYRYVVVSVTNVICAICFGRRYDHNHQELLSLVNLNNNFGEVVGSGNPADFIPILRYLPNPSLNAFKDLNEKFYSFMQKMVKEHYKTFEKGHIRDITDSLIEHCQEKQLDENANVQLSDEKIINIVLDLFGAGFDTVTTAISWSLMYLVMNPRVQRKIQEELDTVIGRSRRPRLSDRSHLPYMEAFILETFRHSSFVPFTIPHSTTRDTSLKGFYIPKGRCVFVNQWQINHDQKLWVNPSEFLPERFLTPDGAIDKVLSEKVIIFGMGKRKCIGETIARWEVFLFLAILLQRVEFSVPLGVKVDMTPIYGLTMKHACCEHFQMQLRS

[6] = test system: rat liver DNA; conditions: 24 h following oral dosing with MeIQx (10 mg/kg); cited from earlier work
[7] = test system: S. typhimurium tester strain TA98; conditions: cited from earlier work
[8] = N- and C-oxidation with mouse liver microsomes; assay type: in vitro ADME, female C57BL/6J mice; conditions: female, C57BL/6J, 200 μM, pH 7.6
[9] = test system: S. typhimurium strain YG1024; conditions: cited from earlier work
[10] = test system: mouse liver DNA; conditions: in vivo
[11] = test system: liver, pancreas and colorectal DNA; conditions: female, C57BL/6J, mouse, in vivo
[12] = N- and C-oxidation with human liver microsomes; assay type: in vitro ADME; conditions: 200 μM, pH 7.6

SMILES: Cc1cnc2ccc3c(nc(N)n3C)c2n1 [MeIQx, 2-Amino-3,8-dimethylimidazo[4,5-f]quinoxaline]
- [14C]-MeIQx bound to liver DNA [1]: about 20 adducts per 10^8 nucleotides
- N-oxidation by P450 1B1 (in words) ([2]; recombinant human P450 1B1): low to not detectable
- Covalent Binding Index, colon ([3]; Time 4 h): 113 ±119 (μ mol/mol dNp)/(mmol carcinogen/kg bw)
- Covalent Binding Index, colon ([3]; Time 24 h): 10.4 ± 11.9 (μ mol/mol dNp)/(mmol carcinogen/kg bw)
- Covalent Binding Index, colon ([3]; Time 48 h): 2.1 ± 0.9 (μ mol/mol dNp)/(mmol carcinogen/kg bw)
- Covalent Binding Index, liver ([3]; Time 4 h): 27.7 ± 8.3 (μ mol/mol dNp)/(mmol carcinogen/kg bw)
- Covalent Binding Index, liver ([3]; Time 24 h): 11.5 ± 7.7 (μ mol/mol dNp)/(mmol carcinogen/kg bw)
- Covalent Binding Index, liver ([3]; Time 48 h): 20.5 ± 8.4 (μ mol/mol dNp)/(mmol carcinogen/kg bw)
- Covalent Binding Index, pancreas ([3]; Time 4 h): 0.8 ± 0.2 (μ mol/mol dNp)/(mmol carcinogen/kg bw)
- Covalent Binding Index, pancreas ([3]; Time 24 h): 0.2 ± 0.1 (μ mol/mol dNp)/(mmol carcinogen/kg bw)
- Covalent Binding Index, pancreas ([3]; Time 48 h): 0.1 ± 0.1 (μ mol/mol dNp)/(mmol carcinogen/kg bw)
- time of highest level of 14C isotope in colorectal DNA ([3]; colorectal DNA, time points 4, 24, 48 h): 4 h
- 14C-isotope associated with liver DNA at 48 h, relative to 4 h ([3]; liver DNA, T 48 h vs 4 h): up to 74%
- total [14C]-MeIQx-DNA adduct formation, based upon AMS measurements ([3]; liver, 24 h post treatment, 2.13 mg/kg by gavage): 11.4 ± 7.6 adducts per 10^8 nucleotides
- CBI in liver at T4 and 24 h ([3]; liver, T4 and 24 h, range over both HAAs): 7 - 28
- 14C-isotope associated with pancreas DNA at 48 h, relative to 4 h ([3]; pancreas DNA, T 48 h vs 4 h): ≤ 25%
- radioactivity cleared from plasma within 48 h ([4]; gavage, 14C-MeIgQx 9.68 mg/kg or 14C-MeIQx 2.13 mg/kg): greater than 95%
- time of peak plasma levels in radioactivity ([4]; gavage, 14C-MeIgQx 9.68 mg/kg or 14C-MeIQx 2.13 mg/kg, time points 4, 24, 48 h): 4 h
- N-oxidation by P450 1A1 (in words) ([5]; recombinant human P450 1A1): low to not detectable
- dA-N^6-MeIQx adduct level relative to dG-C8-MeIQx [6]: ~ 5%
- dG-N^2-MeIQx adduct level relative to dG-C8-MeIQx [6]: 30 - 50%

SMILES: Cc1cnc2cc3nc(N)n(C)c3cc2n1 [MeIgQx, 2-Amino-1,7-dimethylimidazo[4,5-g]quinoxaline]
- potency in the Ames reversion assay, fold lower than MeIQx [7]: about 4,000 fold
- Estimated C-oxidation rate, HO-MeIg Qx formation [8]: 0.5 ± 0.2 nmol/min/mg microsomal protein
- Estimated N-oxidation rate, HONH-MeIg Qx formation [8]: 0.3 ± 0.1 nmol/min/mg microsomal protein
- genotoxic potency in YG1024 relative to TA98, fold greater [9]: 16 fold
- mutagenic potency, fold weaker than PhIP [9]: about 10 fold
- potential dA adduct of MeIgQx ([M+H]+ at m/z 463.2) [10]: no peaks were detected above background level
- putative dG-C8-MeIgQx adduct, MS^2 or MS^3 scan stages [10]: not detected
- CBI in liver at T4 and 24 h [11]: 7 - 28
- time of highest level of 14C isotope in colorectal DNA [11]: 24 h
- Covalent Binding Index, colon ([11]; 4 h): 12.0 ± 6.5 (μ mol/mol dNp)/(mmol carcinogen/kg bw)
- Covalent Binding Index, liver ([11]; 4 h): 21.7 ± 8.6 (μ mol/mol dNp)/(mmol carcinogen/kg bw)
- Covalent Binding Index, pancreas ([11]; 4 h): 2.4 ± 2.4 (μ mol/mol dNp)/(mmol carcinogen/kg bw)
- 14C-isotope associated with liver DNA at 24 h, relative to 4 h ([11]; 24 h): 33%
- 14C-isotope associated with pancreas DNA at 24 h, relative to 4 h ([11]; 24 h): 44%
- Covalent Binding Index, colon ([11]; 24 h): 138 ±114 (μ mol/mol dNp)/(mmol carcinogen/kg bw)
- Covalent Binding Index, liver ([11]; 24 h): 7.0 ± 3.2 (μ mol/mol dNp)/(mmol carcinogen/kg bw)
- Covalent Binding Index, pancreas ([11]; 24 h): 1.1 ± 0.6 (μ mol/mol dNp)/(mmol carcinogen/kg bw)
- 14C-isotope associated with liver DNA at 48 h, relative to 4 h ([11]; 48 h): 27%
- 14C-isotope associated with pancreas DNA at 48 h, relative to 4 h ([11]; 48 h): 17%
- Covalent Binding Index, colon ([11]; 48 h): 28.7 ± 18.5 (μ mol/mol dNp)/(mmol carcinogen/kg bw)
- Covalent Binding Index, liver ([11]; 48 h): 5.8 ± 0.6 (μ mol/mol dNp)/(mmol carcinogen/kg bw)
- Covalent Binding Index, pancreas ([11]; 48 h): 0.2 ± 0.2 (μ mol/mol dNp)/(mmol carcinogen/kg bw)
- Estimated C-oxidation rate, HO-MeIg Qx formation [12]: 0.1 ± 0.01 nmol/min/mg microsomal protein
- Estimated N-oxidation rate, HONH-MeIg Qx formation [12]: 0.4 ± 0.02 nmol/min/mg microsomal protein
- rate of N-oxidation [12]: 0.4 nmol/min/mg protein
- Estimated C-oxidation rate, HO-MeIg Qx formation ([2]; human, 200 μM, pH 7.6): 2.5 ± 0.3 nmol/min/100 pmol P450
- Estimated N-oxidation rate, HONH-MeIg Qx formation ([2]; human, 200 μM, pH 7.6): 3.9 ± 0.6 nmol/min/100 pmol P450
- radioactivity cleared from plasma within 48 h ([4]; female, C57BL/6J, mouse, in vivo, 48 h): greater than 95%
- Estimated C-oxidation rate, HO-MeIg Qx formation ([5]; human, 200 μM, pH 7.6): 6.9 ± 2.4 nmol/min/100 pmol P450
- Estimated N-oxidation rate, HONH-MeIg Qx formation ([5]; human, 200 μM, pH 7.6): 14.1 ± 4.9 nmol/min/100 pmol P450
- rate of MeIgQx N-oxidation by P450 1A1 relative to P450 1A2 ([5]; human, recombinant enzyme, 200 μM, pH 7.6): ~ 3 fold

SMILES: Cn1c(N)nc2ncc(-c3ccccc3)cc21 [PhIP, 2-amino-1-methyl-6-phenylimidazo[4,5-b]pyridine, reference compound]
- mutagenic potency ([9]; S. typhimurium YG1024): 3,015 rev/μg
